Structures are written as SMILES.

Experiment [1] is described as follows: Cross Resistance (antiviral activity) with V108I (Non nucleoside reverse transcriptase inhibitor) resistant HIV isolate v.
A short description of experiment [2]: Cross Resistance (antiviral activity) with L74V (nucleoside reverse transcriptase inhibitor) resistant HIV isolate from cytopathic cell killing assay.
Experiment [3] can be described thus: Cross Resistance (antiviral activity) with 4xAZT (nucleoside reverse transcriptase inhibitor) resistant HIV isolate from cytopathic cell killing assay. For orientation: Protection from cytopathic effect is a common read-out in antiviral testing.
A short description of experiment [4]: Cross Resistance (antiviral activity) with A98G (Non nucleoside reverse transcriptase inhibitor) resistant HIV isolate from cytopathic cell killing assay.
Experiment [5] can be described thus: Cross Resistance (antiviral activity) with V179D (Non nucleoside reverse transcriptase inhibitor) resistant HIV isolate from cytopathic cell killing assay.
Experiment [6] in a line: Cross Resistance (antiviral activity) with Y181C (Non nucleoside reverse transcriptase inhibitor) resistant HIV isolate from cytopathic cell killing assay.
Experiment [7] is described as follows: Cross Resistance (antiviral activity) with Y188C (Non nucleoside reverse transcriptase inhibitor) resistant HIV isolate from cytopathic cell killing assay.
Experiment [8] can be described thus: Cross Resistance (antiviral activity) with K103N (Non nucleoside reverse transcriptase inhibitor) resistant HIV isolate from cytopathic cell killing assay.
The nature of experiment [9]: Cross Resistance (antiviral activity) with L100I (Non nucleoside reverse transcriptase inhibitor) resistant HIV isolate from cytopathic cell killing assay.
Experiment [10] in a line: Cross Resistance (antiviral activity) with K101E (Non nucleoside reverse transcriptase inhibitor) resistant HIV isolate from cytopathic cell killing assay.
Experiment [11] in a line: Cross Resistance (antiviral activity) with V106A (Non nucleoside reverse transcriptase inhibitor) resistant HIV isolate from cytopathic cell killing assay.
Experiment [12] can be described thus: Cross Resistance (antiviral activity) with 4xAZT/L100I (Non nucleoside reverse transcriptase inhibitor) resistant HIV isolate from cytopathic cell killing assay.
Experiment [13] can be described thus: Cross Resistance (antiviral activity) with 4xAZT/Y181C (Non nucleoside reverse transcriptase inhibitor) resistant HIV isolate from cytopathic cell killing assay.
Experiment [14] can be described thus: Cross Resistance (antiviral activity) with NL4-3(WT) NNRTI (Non nucleoside reverse transcriptase inhibitor) resistant HIV isolate from cytopathic cell killing assay.
Experiment [15] is described as follows: Cross Resistance (antiviral activity) with K101E (Non nucleoside reverse transcriptase inhibitor) resistant HIV isolate from cytopathic cell killing assay. The source holds these as a separate data set.
Experiment [16] in a line: Cross Resistance (antiviral activity) with Y181C (Non nucleoside reverse transcriptase inhibitor) resistant HIV isolate from cytopathic cell killing assay. The source holds these as a separate data set.
Experiment [17] is described as follows: Cross Resistance (antiviral activity) with V108I (Non nucleoside reverse transcriptase inhibitor) resistant HIV isolate from cytopathic cell killing assay.
Experiment [18] can be described thus: Cross Resistance (antiviral activity) with A98G (Non nucleoside reverse transcriptase inhibitor) resistant HIV isolate from cytopathic cell killing assay. This is another data set of the same source.
Experiment [19] can be described thus: Cross Resistance (antiviral activity)of the compound with 4xAZT/Y181C (Non nucleoside reverse transcriptase inhibitor) resistant HIV isolate from cytopathic cell killing assay.

`Cc1cccc2c1nc(-c1c(F)cccc1F)n2Cc1c(F)cccc1F`: the EC50 (in general, the concentration that produces a half-maximal response) in [1] is 2800 nM; in experiment [2] it was 100 nM; in experiment [3], 100 nM; in experiment [4] it was 1.4 µM; in experiment [5], 500 nM; in experiment [6], 6 µM. For the same molecule, the EC50 in experiment [7] was determined as 2.3 µM; in experiment [8], 8.1 µM; in [9] it was 0.3 µM; in experiment [10], 16.7 µM; in experiment [11], 20 µM; in [12], 200 nM. The EC50 in experiment [13] is 3.5 µM; in experiment [14], 500 nM.
Consider `Fc1cccc(F)c1Cn1c(-c2c(F)cccc2F)nc2ccccc21`, for which the EC50 is 460 nM in experiment [2]; 270 nM in [3]; 4.75 µM in [4]; 2300 nM in [5]; > 20 µM in [15]; 11.7 µM in [7]. The EC50 in [8] is 12.9 µM; in experiment [16] it was 15.2 µM; in experiment [11] it was > 20 µM; in experiment [17], 10.4 µM; in experiment [12], 840 nM; in experiment [13] it was > 20 µM. The molecule also registered an EC50 in experiment [14] of 1850 nM.
Take `Fc1cccc(F)c1C1SCc2nc3ccccc3n21` (centres undefined) [3-(2,6-difluorophenyl)-4-thia-2,7-diazatricyclo[6.4.0.0^{2,6}]dodeca-1(12),6,8,10-tetraene]: the EC50 in experiment [2] was 700 nM; in experiment [3] it was 1500 nM; in experiment [18], 17.7 µM; in experiment [5], 3100 nM; in experiment [6] it was 16.3 µM; in experiment [15] it was > 20 µM. Moreover, the EC50 in experiment [8] is > 20 µM; in experiment [9] it was 12.2 µM; in [11], > 20 µM; in [17], 9.7 µM; in experiment [12], 1700 nM; in experiment [13], 14.5 µM. This molecule had a half-maximal effective concentration (EC50) in experiment [14] of 1700 nM.
On to `CC1Cn2c(=O)[nH]c3cccc(c32)CN1` (stereo not drawn) [(S-(+))-8-Methyl-6,7,8,9-tetrahydro-2H-2,7,9a-triaza-benzo[cd]azulen-1-one], for which the EC50 in [2] turned out to be 200 nM; in experiment [3], 300 nM; in experiment [4] it was 11 µM; in [5] it was 6200 nM; in experiment [6] it was 4.2 µM; in [15], 17.4 µM. Moreover, the EC50 is > 17.4 µM in [7]; 17.4 µM in experiment [8]; 17.4 µM in [9]; 12.5 µM in experiment [11]; 2.4 µM in experiment [17]; > 17400 nM in experiment [12]. The EC50 in experiment [14] amounted to 300 nM; in experiment [19] it was 2000 nM.

(Values after BindingDB's records for doi:10.1021/jm970096g (National Cancer Institute-Frederick, 1998).)
